According to US9302999B2, “Substituted triazoles as herbicides” (E. I. DU PONT DE NEMOURS AND COMPANY, priority 2012, dated 2016):

How the values were obtained:
Assay type in all cases: in vivo
[1] = test system: sedge, umbrella (small-flower umbrella sedge Cyperus difformis); assay: Test B flooded paddy: sedge, umbrella; conditions: Flood; 250 g ai/ha; applied to paddy water at 2-leaf stage; visually evaluated after 13 to 15 days
Summary of the method: (§1)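 Two-leaf-stage plants, pots flooded (3 cm above soil) and treated through the water, which stayed at that depth. After 13–15 days in greenhouse conditions, visual assessment versus controls: 0 is no effect, 100 complete control, dash means no result.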

[2] = test system: crabgrass, large (large crabgrass, Digitaria sanguinalis); assay: Test A pre-/postemergence: crabgrass, large
Summary of the method: (§2)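 Injury is scored visually on a scale where 0 means no effect and 100 complete control, comparing treated with untreated plants after approximately ten greenhouse days. Both preemergence and postemergence applications are made at the same time.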

[3] = test system: rice (Oryza sativa); assay: Test B flooded paddy: rice; conditions: Flood; 250 g ai/ha; applied to paddy water at 2-leaf stage; visually evaluated after 13 to 15 days
Summary of the method: as §1

[4] = test system: barnyardgrass (Echinochloa crus-galli); assay: Test B flooded paddy: barnyardgrass; conditions: Flood; 250 g ai/ha; applied to paddy water at 2-leaf stage; visually evaluated after 13 to 15 days
Summary of the method: as §1

[5] = test system: morningglory (Ipomoea spp.); assay: Test A pre-/postemergence: morningglory; conditions: for Morningglory plant response rating: visual rating on 0 to 100 scale (0 no effect, 100 complete control), approximately ten days
Summary of the method: as §2

[6] = test system: foxtail, giant (giant foxtail, Setaria faberii); assay: Test A pre-/postemergence: foxtail, giant
Summary of the method: as §2

[7] = test system: corn (Zea mays); assay: Test A pre-/postemergence: corn
Summary of the method: as §2

[8] = test system: pigweed (Amaranthus retroflexus); assay: Test A pre-/postemergence: pigweed; conditions: for Pigweed plant response rating: visual rating on 0 to 100 scale (0 no effect, 100 complete control), approximately ten days
Summary of the method: as §2

[9] = test system: velvetleaf (Abutilon theophrasti); assay: Test A pre-/postemergence: velvetleaf; conditions: for Velvetleaf plant response rating: visual rating on 0 to 100 scale (0 no effect, 100 complete control), approximately ten days
Summary of the method: as §2

[10] = test system: barnyardgrass (Echinochloa crus-galli); assay: Test A pre-/postemergence: barnyardgrass
Summary of the method: as §2

[11] = test system: ducksalad (Heteranthera limosa); assay: Test B flooded paddy: ducksalad; conditions: Flood; 250 g ai/ha; applied to paddy water at 2-leaf stage; visually evaluated after 13 to 15 days
Summary of the method: as §1

[12] = test system: wheat (Triticum aestivum); assay: Test A pre-/postemergence: wheat; conditions: for Wheat plant response rating: visual rating on 0 to 100 scale (0 no effect, 100 complete control), approximately ten days
Summary of the method: as §2

[13] = Postemergence, 125 g ai/ha, 0 to 100 scale, 0 is no effect, 100 is complete control
[14] = Postemergence, 500 g ai/ha, visual rating on 0 to 100 scale (0 no effect, 100 complete control), approximately ten days
[15] = Preemergence, 125 g ai/ha, 0 to 100 scale where 0 is no effect and 100 is complete control
[16] = Preemergence, 500 g ai/ha, 0 to 100 scale (0 no effect, 100 complete control)

Row | SMILES | Plant response rating, Sedge, Umbrella (0 to 100 scale, 0 is no effect, 100 is complete control) [1] | Crabgrass, Large plant response rating [2, 14] | Plant response rating, Crabgrass, Large [2, 15] | Plant response rating, Crabgrass, Large [2, 16] | Plant response rating, Rice (0 to 100 scale, 0 is no effect, 100 is complete control) [3] | Plant response rating, Barnyardgrass (0 to 100 scale, 0 is no effect, 100 is complete control) [4] | Plant response rating, Morningglory [5, 13] | Morningglory plant response rating ([5]; Postemergence, 500 g ai/ha) | Plant response rating, Morningglory [5, 15] | Plant response rating, Morningglory [5, 16] | Foxtail, Giant plant response rating [6, 14] | Plant response rating, Foxtail, Giant [6, 15] | Plant response rating, Foxtail, Giant [6, 16] | Corn plant response rating [7, 14] | Plant response rating, Corn [7, 15] | Plant response rating, Corn [7, 16] | Plant response rating, Pigweed [8, 13] | Pigweed plant response rating ([8]; Postemergence, 500 g ai/ha) | Plant response rating, Pigweed [8, 15] | Plant response rating, Pigweed [8, 16] | also measured
1 | CCc1nn(-c2ccc(F)cc2)nc1Cc1cccc(C(F)(F)F)c1 [Compound 144] | 80 | 90 | 50 | 100 | 20 | 30 | 20 | 90 | 0 | 0 | 90 | 50 | 100 | 30 | 0 | 0 | 100 | 100 | 50 | 100 | Crabgrass, Large plant response rating [2, 13]: 50; Foxtail, Giant plant response rating [6, 13]: 30; Corn plant response rating [7, 13]: 10; Plant response rating, Velvetleaf [9, 13]: 40; Velvetleaf plant response rating ([9]; Postemergence, 500 g ai/ha): 50; Plant response rating, Velvetleaf [9, 15]: 0; Plant response rating, Velvetleaf [9, 16]: 0; Barnyardgrass plant response rating [10, 13]: 10; Barnyardgrass plant response rating [10, 14]: 30; Plant response rating, Barnyardgrass [10, 15]: 0; Plant response rating, Barnyardgrass [10, 16]: 30; Plant response rating, Ducksalad (0 to 100 scale, 0 is no effect, 100 is complete control) [11]: 40; Plant response rating, Wheat [12, 13]: 0; Wheat plant response rating ([12]; Postemergence, 500 g ai/ha): 20; Plant response rating, Wheat [12, 15]: 0; Plant response rating, Wheat [12, 16]: 0
2 | CCCc1nn(-c2ccc(F)cc2)nc1Cc1cccc(C(F)(F)F)c1 [Compound 149] | 60 | 90 | 90 | 100 | 30 | 40 | 90 | 100 | 10 | 30 | 90 | 90 | 100 | 40 | 10 | 20 | 100 | 100 | 90 | 100 | Plant response rating, Crabgrass, Large [2, 13]: 80; Plant response rating, Foxtail, Giant [6, 13]: 80; Plant response rating, Corn [7, 13]: 30; Plant response rating, Velvetleaf [9, 13]: 60; Velvetleaf plant response rating ([9]; Postemergence, 500 g ai/ha): 100; Plant response rating, Velvetleaf [9, 15]: 20; Plant response rating, Velvetleaf [9, 16]: 50; Plant response rating, Barnyardgrass [10, 13]: 30; Barnyardgrass plant response rating [10, 14]: 80; Plant response rating, Barnyardgrass [10, 15]: 60; Plant response rating, Barnyardgrass [10, 16]: 90; Plant response rating, Ducksalad (0 to 100 scale, 0 is no effect, 100 is complete control) [11]: 60; Plant response rating, Wheat [12, 13]: 20; Wheat plant response rating ([12]; Postemergence, 500 g ai/ha): 30; Plant response rating, Wheat [12, 15]: 0; Plant response rating, Wheat [12, 16]: 50
